Experimental data as given in US9206177B2, “Substituted dimeric quinazoline-2,4-diones as FGF receptor agonists” (Sanofi, priority 2011, dated 2015).

Test system: human venous endothelial cells (HUVECs)
Assay: In vitro angiogenesis model (pseudotubule length of HUVECs on matrigel/collagen)
Format: cell-based
Parameters: % activation with respect to FGF2 (in vitro): concentration or dose not given beside the values
Details: for EC50 / % activation with respect to FGF2 (in vitro): in vitro; for % activation with respect to FGF2 (in vitro): relative to FGF2
Procedure: In Vitro Angiogenesis Model
The products are tested for their ability to cause rearrangement of human venous endothelial cells (HUVECs) on matrigel (Becton dickinson 356230) diluted in collagen (rat tail collagen, type I: Becton dickinson 354236). After 24 hours, the cells are observed under a microscope with a ×4 objective and the length of the pseudotubules is measured by means of an image analyser (BIOCOM-logiciel Visiolab 2000).

Row | SMILES | EC50 [nM] | % activation with respect to FGF2 (in vitro) [%] | EC50 (Homo sapiens, HUVEC) [nM] | active on the in vitro angiogenesis model (at a concentration of 10 nM)
1 | Cc1c(NC(=O)c2cccc(OCC(=O)NCCNC(=O)COc3cccc(C(=O)Nc4c(C)c(C(=O)c5ccc6c(=O)n(CC(=O)O)c(=O)[nH]c6c5)n5ccccc45)c3)c2)c2ccccn2c1C(=O)c1ccc2c(=O)n(CC(=O)O)c(=O)[nH]c2c1 [Compound 20] | < 3 | 61 | – | –
2 | Cc1c(-c2ccc(OCCCCCN(CCCCCOc3ccc(-c4c(C)c(C(=O)c5ccc6c(=O)n(CC(=O)O)c(=O)[nH]c6c5)n5ccccc45)cc3)Cc3ccncc3)cc2)c2ccccn2c1C(=O)c1ccc2c(=O)n(CC(=O)O)c(=O)[nH]c2c1 [Compound 12, 2,2′-{[(pyridin-4-ylmethyl)imino]bis[pentane-5,1-diyloxybenzene-4,1-diyl(2-methylindolizine-1,3-diyl)carbonyl(2,4-dioxo-1,4-dihydroquinazoline-7,3(2H)-diyl)]}diacetic acid] | – | 42 | < 1 | –
3 | Cc1c(-c2ccc(OCCCCCN(CCCCCOc3ccc(-c4c(C)c(C(=O)c5ccc6c(=O)n(CC(=O)O)c(=O)[nH]c6c5)n5ccccc45)cc3)CCN3CCN(C)CC3)cc2)c2ccccn2c1C(=O)c1ccc2c(=O)n(CC(=O)O)c(=O)[nH]c2c1 [Compound 11, 2,2′-({[2-(4-methylpiperazin-1-yl)ethyl]imino}bis[pentane-5,1-diyloxybenzene-4,1-diyl(2-methylindolizine-1,3-diyl)carbonyl(2,4-dioxo-1,4-dihydroquinazoline-7,3(2H)-diyl)])diacetic acid] | – | 63 | < 1 | –
4 | Cc1c(-c2cccc(OCCOCCOCCOCCOc3cccc(-c4c(C)c(C(=O)c5ccc6[nH]c(=O)n(CC(=O)O)c(=O)c6c5)n5ccccc45)c3)c2)c2ccccn2c1C(=O)c1ccc2[nH]c(=O)n(CC(=O)O)c(=O)c2c1 [Compound 2, 2,2′-{oxybis[ethane-2,1-diyloxyethane-2,1-diyloxybenzene-3,1-diyl(2-methylindolizine-1,3-diyl)carbonyl(2,4-dioxo-1,4-dihydroquinazoline-6,3(2H)-diyl)]}diacetic acid] | – | 44 | < 1 | –
5 | Cc1c(-c2ccc(OCCCCCN(CCCCCOc3ccc(-c4c(C)c(C(=O)c5ccc6c(=O)n(CC(=O)O)c(=O)[nH]c6c5)n5ccccc45)cc3)CCN3CCOCC3)cc2)c2ccccn2c1C(=O)c1ccc2c(=O)n(CC(=O)O)c(=O)[nH]c2c1 [Compound 10, 2,2′-({[2-(morpholin-4-yl)ethyl]imino}bis[pentane-5,1-diyloxybenzene-4,1-diyl(2-methylindolizine-1,3-diyl)carbonyl(2,4-dioxo-1,4-dihydroquinazoline-7,3(2H)-diyl)])diacetic acid] | – | 41 | < 1 | –
6 | Cc1c(-c2ccc(OCCOCCOCCOc3ccc(-c4c(C)c(C(=O)c5ccc6[nH]c(=O)n(CC(=O)O)c(=O)c6c5)n5ccccc45)cc3)cc2)c2ccccn2c1C(=O)c1ccc2[nH]c(=O)n(CC(=O)O)c(=O)c2c1 [Compound 3, 2,2′-{ethane-1,2-diylbis[oxyethane-2,1-diyloxybenzene-4,1-diyl(2-methylindolizine-1,3-diyl)carbonyl(2,4-dioxo-1,4-dihydroquinazoline-6,3(2H)-diyl)]}diacetic acid] | – | 74 | < 1 | active
7 | Cc1c(-c2cccc(C(=O)NCCOP(=O)(O)OCCNC(=O)c3cccc(-c4c(C)c(C(=O)c5ccc6c(=O)n(CC(=O)O)c(=O)[nH]c6c5)n5ccccc45)c3)c2)c2ccccn2c1C(=O)c1ccc2c(=O)n(CC(=O)O)c(=O)[nH]c2c1 [Compound 19, [7-({1-[3-({9-[3-(3-{[3-(carboxymethyl)-2,4-dioxo-1,4-dihydroquinazolin-7(2H)-yl]carbonyl}-2-methylindolizin-1-yl)phenyl]-4-hydroxy-4-oxido-9-oxo-3,5-dioxa-8-aza-4λ^5-phosphanon-1-yl}carbamoyl)phenyl]-2-methylindolizin-3-yl}carbonyl)-2,4-dioxo-1,4-dihydroquinazolin-3(2H)-yl]acetic acid] | – | 35 | 3 | –
8 | Cc1c(-c2ccc(OCC(=O)NCCCCNC(=O)COc3ccc(-c4c(C)c(C(=O)c5ccc6[nH]c(=O)n(CC(=O)O)c(=O)c6c5)n5ccccc45)cc3)cc2)c2ccccn2c1C(=O)c1ccc2[nH]c(=O)n(CC(=O)O)c(=O)c2c1 [Compound 5] | < 100 | 30 | – | –
9 | Cc1c(-c2cccc(C(=O)NCCOCCOCCNC(=O)c3cccc(-c4c(C)c(C(=O)c5ccc6c(=O)n(CC(=O)O)c(=O)[nH]c6c5)n5ccccc45)c3)c2)c2ccccn2c1C(=O)c1ccc2c(=O)n(CC(=O)O)c(=O)[nH]c2c1 [Compound 18, 2,2′-{ethane-1,2-diylbis[oxyethane-2,1-diylcarbamoylbenzene-3,1-diyl(2-methylindolizine-1,3-diyl)carbonyl(2,4-dioxo-1,4-dihydroquinazoline-7,3(2H)-diyl)]}diacetic acid] | < 1 | 85 | – | –
10 | Cc1c(-c2ccc(OCCCCCN(CCCCCOc3ccc(-c4c(C)c(C(=O)c5ccc6c(=O)n(CC(=O)O)c(=O)[nH]c6c5)n5ccccc45)cc3)CCOCCO)cc2)c2ccccn2c1C(=O)c1ccc2c(=O)n(CC(=O)O)c(=O)[nH]c2c1 [Compound 8, 2,2′-({[2-(2-hydroxyethoxy)ethyl]imino}bis[pentane-5,1-diyloxybenzene-4,1-diyl(2-methylindolizine-1,3-diyl)carbonyl(2,4-dioxo-1,4-dihydroquinazoline-7,3(2H)-diyl)])diacetic acid] | – | 42 | < 1 | –
11 | Cc1c(-c2cccc(OCC(=O)NCCCCNC(=O)COc3cccc(-c4c(C)c(C(=O)c5ccc6[nH]c(=O)n(CC(=O)O)c(=O)c6c5)n5ccccc45)c3)c2)c2ccccn2c1C(=O)c1ccc2[nH]c(=O)n(CC(=O)O)c(=O)c2c1 [Compound 7] | < 100 | 28 | – | –
12 | Cc1c(-c2ccc(OCCCN3CCN(CCCOc4ccc(-c5c(C)c(C(=O)c6ccc7c(=O)n(CC(=O)O)c(=O)[nH]c7c6)n6ccccc56)cc4)CC3)cc2)c2ccccn2c1C(=O)c1ccc2c(=O)n(CC(=O)O)c(=O)[nH]c2c1 [Compound 15, 2,2′-{piperazine-1,4-diylbis[propane-3,1-diyloxybenzene-4,1-diyl(2-methylindolizine-1,3-diyl)carbonyl(2,4-dioxo-1,4-dihydroquinazoline-7,3(2H)-diyl)]}diacetic acid] | – | 24 | < 100 | –
13 | CCN(CC)CCN(CCCCCOc1ccc(-c2c(C)c(C(=O)c3ccc4c(=O)n(CC(=O)O)c(=O)[nH]c4c3)n3ccccc23)cc1)CCCCCOc1ccc(-c2c(C)c(C(=O)c3ccc4c(=O)n(CC(=O)O)c(=O)[nH]c4c3)n3ccccc23)cc1 [Compound 14, 2,2′-({[2-(diethylamino)ethyl]imino}bis[pentane-5,1-diyloxybenzene-4,1-diyl(2-methylindolizine-1,3-diyl)carbonyl(2,4-dioxo-1,4-dihydroquinazoline-7,3(2H)-diyl)])diacetic acid] | – | 62 | < 1 | –
14 | Cc1c(-c2ccc(C(=O)NCCOCCOCCNC(=O)c3ccc(-c4c(C)c(C(=O)c5ccc6c(=O)n(CC(=O)O)c(=O)[nH]c6c5)n5ccccc45)cc3)cc2)c2ccccn2c1C(=O)c1ccc2c(=O)n(CC(=O)O)c(=O)[nH]c2c1 [Compound 17, 2,2′-{ethane-1,2-diylbis[oxyethane-2,1-diylcarbamoylbenzene-4,1-diyl(2-methylindolizine-1,3-diyl)carbonyl(2,4-dioxo-1,4-dihydroquinazoline-7,3(2H)-diyl)]}diacetic acid] | 10 | 44 | – | –
15 | CCN(CCCCCOc1ccc(-c2c(C)c(C(=O)c3ccc4c(=O)n(CC(=O)O)c(=O)[nH]c4c3)n3ccccc23)cc1)CCCCCOc1ccc(-c2c(C)c(C(=O)c3ccc4c(=O)n(CC(=O)O)c(=O)[nH]c4c3)n3ccccc23)cc1 [Compound 9, 2,2′-{(ethylimino)bis[pentane-5,1-diyloxybenzene-4,1-diyl(2-methylindolizine-1,3-diyl)carbonyl(2,4-dioxo-1,4-dihydroquinazoline-7,3(2H)-diyl)]}diacetic acid] | – | 28 | < 100 | –
16 | Cc1c(-c2ccc(OCCCCCN(CCCCCOc3ccc(-c4c(C)c(C(=O)c5ccc6c(=O)n(CC(=O)O)c(=O)[nH]c6c5)n5ccccc45)cc3)Cc3ccc(N(C)C)cc3)cc2)c2ccccn2c1C(=O)c1ccc2c(=O)n(CC(=O)O)c(=O)[nH]c2c1 [Compound 13, 2,2′-({[4-(dimethylamino)benzyl]imino}bis[pentane-5,1-diyloxybenzene-4,1-diyl(2-methylindolizine-1,3-diyl)carbonyl(2,4-dioxo-1,4-dihydroquinazoline-7,3(2H)-diyl)])diacetic acid] | – | 23 | < 100 | –
17 | Cc1c(-c2cccc(OCC(=O)NCCCCCCNC(=O)COc3cccc(-c4c(C)c(C(=O)c5ccc6[nH]c(=O)n(CC(=O)O)c(=O)c6c5)n5ccccc45)c3)c2)c2ccccn2c1C(=O)c1ccc2[nH]c(=O)n(CC(=O)O)c(=O)c2c1 [Compound 6] | < 100 | 29 | – | –
